Where “and” joins values, the source holds several entries; their conditions need not be identical. Equal values may be shown once.
Assays:
dopamine transporter [1] = biological target: T1, dopamine transporter (Rattus norvegicus, UniProt P23977); test: Correlation between [^18F]FP-CIT PET uptake and tyrosine hydroxylase IHC; assay type: in vivo, Sprague–Dawley rats; conditions: Pearson
T1 construct: animal PET/CT imaging of [^18F]FP-CIT was performed in the same week following the behavioral tests on the group IV 6-OHDA PD model; from tissue; host or cells: striatum of living Sprague-Dawley rats (in vivo PET/CT)
T1 sequence (P23977 whole entry): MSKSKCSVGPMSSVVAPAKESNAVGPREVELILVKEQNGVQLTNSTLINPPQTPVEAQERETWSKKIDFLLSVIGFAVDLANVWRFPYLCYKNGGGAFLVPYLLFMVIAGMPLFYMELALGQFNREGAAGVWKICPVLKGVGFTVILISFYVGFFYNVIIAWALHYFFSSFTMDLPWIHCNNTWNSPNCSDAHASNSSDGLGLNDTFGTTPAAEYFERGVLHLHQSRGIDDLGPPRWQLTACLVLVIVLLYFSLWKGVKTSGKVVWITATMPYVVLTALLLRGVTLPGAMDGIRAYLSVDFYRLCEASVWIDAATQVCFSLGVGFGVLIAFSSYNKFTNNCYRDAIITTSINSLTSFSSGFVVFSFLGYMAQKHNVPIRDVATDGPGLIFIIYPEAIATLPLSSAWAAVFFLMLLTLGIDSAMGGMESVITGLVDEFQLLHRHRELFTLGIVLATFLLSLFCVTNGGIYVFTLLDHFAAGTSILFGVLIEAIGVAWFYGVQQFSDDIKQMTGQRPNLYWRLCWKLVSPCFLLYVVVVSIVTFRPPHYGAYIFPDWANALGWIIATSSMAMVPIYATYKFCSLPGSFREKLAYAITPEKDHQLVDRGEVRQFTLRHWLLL
Method: After MR and PET/CT studies, group IV rats were anesthetized with 3.5% isoflurane and fixed by intracardial perfusion with 0.9% saline, followed by 4% paraformaldehyde, replacing the blood in the brain. The brains were extracted and post-fixed in 4% paraformaldehyde overnight at 4 °C. Subsequently, the samples were transferred to 30% sucrose at 4 °C until they sank to the bottom. Cryoprotected brains were embedded in optimal cutting temperature compound (Tissue-Tek; Sakura, Torrance, CA, USA) and sectioned in the coronal plane using a microtome (CM1950; Leica, Wetzlar, Germany) at a thickness of 30 μm. Free-floating brain sections were rinsed with PBS, treated with 3% hydrogen peroxide for 30 min, and then washed with PBS again. Sections were permeabilized with 0.3% Trioton-X-100 for 30 min and washed with PBS. […]
IHC slide imaging was performed using a slide scanner (MoticEasyScan Pro 6; Motic, Kowloon, Hong Kong). The intensity of TH antibody binding was quantified by delineating regions of interest (ROI) for positive lesion and intact sites on the IHC images using ImageJ software. An average of four slides for each brain sample was analyzed. […]
The correlation between [^18F]FP-CIT uptake and TH intensity was assessed, considering absolute values for each lesion and intact site in the striatum. Additionally, lesion/intact ratio values for each study were calculated and analyzed. […]

dopamine transporter [2] = biological target: T1, dopamine transporter; test: Animal PET/CT imaging of [^18F]FP-CIT in the 6-OHDA-induced rat model; assay type: in vivo, Sprague–Dawley rats; conditions: for SUV of lesion site uptake: 37 MBq i.v.
Method: We induced the PD model in rats using 6-OHDA according to a previous study. Briefly, female Sprague–Dawley rats (group IV) were intraperitoneally pretreated with desipramine […] (12.5 mg/kg; 12.5 mg/mL). The rats were anesthetized with 3% isoflurane in oxygen, had their heads shaved, and were placed in a stereotactic frame. A lesion in the right striatum was induced by 6-OHDA injection (4 μg/μL, 2 μL/site in 0.2% ascorbic acid) into four coordinate sites (anterior–posterior (AP) + 1.3, + 0.4, − 0.4, and − 1.3 mm; medial–lateral (ML) − 2.6, − 3.0, − 4.2, and − 4.5 mm; and dorsal–ventral (DV) − 5.0 mm) using a 26G Hamilton syringe at a rate of 1 μL/min (n = 3). The syringe was withdrawn slowly 5 min after the injection, and the wound was sutured. The surgical procedure in the sham group was also performed in the same manner using […] in normal saline instead of 6-OHDA (n = 3). All of the rats were randomly assigned to PD and sham model groups.
To evaluate the uptake targeting efficacy in the striatum, animal PET/CT imaging of [^18F]FP-CIT was performed in the same week following the behavioral tests on the group IV 6-OHDA PD model (PD model and sham model, n = 3 per group). PET/CT images were acquired using nanoScan® PET/CT (Mediso Medical Imaging Systems, Budapest, Hungary). PET image acquisition was performed as previously described. Rats were anesthetized with 2% isoflurane in oxygen, and 37 MBq of [^18F]FP-CIT in 1 mL of saline was intravenously injected via the tail vein using a syringe pump (Pump Elite 11, Harvard Apparatus, USA) over 1 min. Dynamic PET scanning was performed for 60 min with 24 frames ([…], 3 × 60, 4 × 300, and 3 × 600 s). Image scans were acquired in the energy window of 400–600 keV. All images were reconstructed using a three-dimensional ordered subset expectation maximization (3D-OSEM) algorithm with four iterations and six subsets. For attenuation correction and anatomical reference, CT imaging was performed immediately after PET using a 50 kVp of X-ray voltage with 0.16 mAs.
To define the anatomical volumes of interest (VOIs), MR scans were obtained on a 31 cm horizontal-bore Agilent 9.4T scanner (Agilent Technologies, Santa Clara, CA, USA) using a 4-channel array mouse head surface coil following PET/CT imaging (Rapid Biomedical GmbH, Rimpar, Germany) (PD model and sham model, n = 3 each). […] The respiratory rates of the rats were monitored using an MR-compatible physiological monitoring and gating system during image acquisition (SA Instruments Inc., USA).
Each PET image was co-registered with the raw MR image to compare the regional [^18F]FP-CIT uptake in the striatum. […] The obtained uptake value, represented as the standardized uptake value (SUV), was determined for each VOI. […]

[3] = Excretion study of [^18F]FP-CIT in urine and feces of normal mice; assay type: in vivo, C57BL/6 mice
Method: For excretion analysis, male C57BL/6 mice (group II) were injected with 37 MBq of [^18F]FP-CIT in the same way described above. The mice were kept in separate cages for urine and feces collection at different time points (1, 2, 3, 4, 5, and 6 h after injection; n = 6 each). Six pieces of absorbent paper were placed in the cages to ensure that all urine samples were absorbed into the paper when the test animals excreted the urine. Fecal samples were collected using felt. The urine remaining in the bladder was collected using a syringe after the mice were sacrificed at the endpoints. The samples collected at each time point were measured using a dose calibrator (CRC-127R; Capintec, Florham Park, NJ, USA). Decay correction of the radioactivity indicated on the dose calibrator at the relevant time points was performed.

COC(=O)[C@H]1[C@@H](c2ccc(I)cc2)C[C@@H]2CC[C@H]1N2CCCF [[^18F]FP-CIT, N-(3-fluoropropyl)-2β-carboxymethoxy-3β-(4-iodophenyl) nortropane]
correlation coefficient (R) between animal PET/CT uptake and TH intensity by IHC, absolute values (dopamine transporter [1]; each lesion and intact site in the striatum, n = 12): 0.803 | correlation coefficient (R) between animal PET/CT uptake and TH intensity by IHC, lesion/intact ratio values (dopamine transporter [1]; n = 6): 0.973 | time at which transient equilibrium tendency appeared in TACs (dopamine transporter [2]; intact striatum, post-injection): approximately 5 min | reduction of lesion site SUV, PD group vs sham group (dopamine transporter [2]; striatum lesion site): 55.4% | SUV of lesion site uptake (dopamine transporter [2]; striatum lesion site, PD group (6-OHDA)): 1.85 ± 0.13 | SUV of lesion site uptake (dopamine transporter [2]; striatum lesion site, sham group): 4.15 ± 0.86 | Accumulated excretion radioactivity (Decay corrected) ([3]; 1 h, Mean ± SD of 6 mice (group II)): 0.03 ± 0.04 mCi | Accumulated excretion radioactivity (Decay corrected) ([3]; 1 h, individual mice no. 1-6 (group II), 37 MBq i.v.): 0.00 mCi and 0.01 mCi and 0.10 mCi and 0.03 mCi and 0.02 mCi | Accumulated excretion radioactivity (Decay corrected) ([3]; 2 h, Mean ± SD of 6 mice (group II)): 0.05 ± 0.04 mCi | Accumulated excretion radioactivity (Decay corrected) ([3]; 2 h, individual mice no. 1-6 (group II), 37 MBq i.v.): 0.07 mCi and 0.01 mCi and 0.11 mCi and 0.02 mCi and 0.05 mCi | Accumulated excretion radioactivity (Decay corrected) ([3]; 3 h, Mean ± SD of 6 mice (group II)): 0.06 ± 0.05 mCi | Accumulated excretion radioactivity (Decay corrected) ([3]; 3 h, individual mice no. 1-6 (group II), 37 MBq i.v.): 0.07 mCi and 0.01 mCi and 0.15 mCi and 0.02 mCi and 0.08 mCi and 0.05 mCi | Accumulated excretion radioactivity (Decay corrected) ([3]; 4 h, Mean ± SD of 6 mice (group II)): 0.08 ± 0.06 mCi | Accumulated excretion radioactivity (Decay corrected) ([3]; 4 h, individual mice no. 1-6 (group II), 37 MBq i.v.): 0.11 mCi and 0.01 mCi and 0.16 mCi and 0.02 mCi and 0.09 mCi and 0.08 mCi | Accumulated excretion radioactivity (Decay corrected) ([3]; 5 h, Mean ± SD of 6 mice (group II)): 0.09 ± 0.05 mCi | Accumulated excretion radioactivity (Decay corrected) ([3]; 5 h, individual mice no. 1-6 (group II), 37 MBq i.v.): 0.11 mCi and 0.04 mCi and 0.17 mCi and 0.02 mCi and 0.09 mCi and 0.08 mCi | Accumulated excretion radioactivity (Decay corrected) ([3]; 6 h, Mean ± SD of 6 mice (group II)): 0.09 ± 0.05 mCi | Accumulated excretion radioactivity (Decay corrected) ([3]; 6 h, individual mice no. 1-6 (group II), 37 MBq i.v.): 0.12 mCi and 0.04 mCi and 0.17 mCi and 0.02 mCi and 0.10 mCi | Excretion ratio ([3]; till 6 h, individual mice no. 1-6 (group II)): 26.99% and 14.17% and 31.89% and 6.20% and 22.94% and 26.58%

— PMC11222350, “Preclinical evaluation of [^18F]FP-CIT, the radiotracer targeting dopamine transporter for diagnosing Parkinson’s disease: pharmacokinetic and efficacy analysis” (EJNMMI Research, 2024)
